Source: patent US7915282B2, “C2-phenyl-substituted cyclic keto-enols used as pesticides and herbicides” (Bayer Aktiengesellschaft, priority 2000, dated 2011)

Assays:
Assay type in all cases: in vivo
Digitaria [1] = test: Post-emergence test; details: after three weeks
Method: (§1) [table] To produce a suitable preparation of active compound, 1 part by weight of active compound is mixed with the stated amount of solvent, the stated amount of emulsifier is added and the concentrate is diluted with water to the desired concentration. Test plants of a height of 5-15 cm are sprayed with the preparation of active compound such that the particular amounts of active compound desired are applied per unit area. The concentration of the spray liquor is chosen such that the particular amount of active compound desired is applied in 1000 l of water/ha. After three weeks, the degree of damage to the plants is rated in % damage in comparison to the development of the untreated control. The figures denote: [table]

Galium = test: Post-emergence test; details: 125 g ai/ha, after three weeks
Method: as §1

Sorghum = test: Post-emergence test; details: 125 g ai/ha, after three weeks
Method: as §1

Setaria [2] = test: Post-emergence test; details: after three weeks
Method: as §1

Lolium [3] = test: Post-emergence test; details: 125 g ai/ha, after three weeks
Method: as §1

Sugar beet [4] = test: Post-emergence test; details: after three weeks
Method: as §1

Oilseed rape = test: Post-emergence test; details: 125 g ai/ha, after three weeks
Method: as §1

[5] = test system: green rice leaf hopper (Nephotettix cincticeps); test: Nephotettix test; details: active compound concentration of 1000 ppm; after 6 days; rice seedlings dipped
Method: [table] To produce a suitable preparation of active compound, 1 part by weight of active compound is mixed with the stated amounts of solvent and emulsifier, and the concentrate is diluted with emulsifier-containing, water to the desired concentration. Rice seedlings (Oryza sativa) are treated by being dipped into the preparation of active compound of the desired concentrated and are populated with the green rice leaf hopper (Nephotettix cincticeps) while the leaves are still moist. After the desired period of time, the kill in % is determined. 100% means that all leaf hoppers have been killed; 0% means that none of the leaf hoppers have been killed.

[6] = test system: larvae of the mustard beetle (Phaedon cochleariae); test: Phaedon larvae test; details: active compound concentration of 1000 ppm; after 7 days; cabbage leaves dipped
Method: (§2) [table] To produce a suitable preparation of active compound, 1 part by weight of active compound is mixed with the stated amounts of solvent and emulsifier, and the concentrate is diluted with emulsifier-containing water to the desired concentration. Cabbage leaves (Brassica oleracea) are treated by being dipped into the preparation of active compound of the desired concentration and are populated with larvae of the mustard beetle (Phaedon cochleariae) while the leaves are still moist. After the desired period of time, the kill in % is determined. 100% means that all beetle larvae have been killed; 0% means that none of the beetle larvae have been killed.

Soya bean [7] = test: Post-emergence test; details: 125 g ai/ha, after three weeks
Method: as §1

Wheat [8] = test: Pre-emergence test; details: 60 g ai/ha, after three weeks
Method: (§3) [table] To produce a suitable preparation of active compound, 1 part by weight of active compound is mixed with the stated amount of solvent, the stated amount emulsifier is added and the concentrate is diluted with water to the desired concentration. Seeds of the test plants are sown in normal soil. After about 24 hours, the soil is sprayed with the preparation of active compound such that the particular amounts of active compound desired are applied per unit area. The concentration of the spray liquor is chosen such that the particular amounts of active compound desired are applied in 1000 l of water/ha. After three weeks, the degree of damage to the plants is rated in % damage in comparison to the development of the untreated controls. The figures denote: [table]

Alopecurus [9] = test: Pre-emergence test; details: after three weeks
Method: as §3

Soya bean [10] = test: Pre-emergence test; details: after three weeks
Method: as §3

Setaria [11] = test: Pre-emergence test; details: after three weeks
Method: as §3

Lolium [12] = test: Pre-emergence test; details: after three weeks
Method: as §3

Chenopodium = test: Pre-emergence test; details: 60 g ai/ha, after three weeks
Method: as §3

Echinochloa = test: Pre-emergence test; details: 60 g ai/ha, after three weeks
Method: as §3

Alopecurus [13] = test: Post-emergence test; details: after three weeks
Method: as §1

Ipomoea = test: Post-emergence test; details: 125 g ai/ha, after three weeks
Method: as §1

Avena fatua = test: Post-emergence test; details: after three weeks
Method: as §1

[14] = test system: greenhouse red spider mite (Tetranychus urticae); test: Tetranychus test (OP-resistant/dip treatment); details: active compound concentration of 1000 ppm; after 7 days; infested bean plants dipped
Method: [table] To produce a suitable preparation of active compound, 1 part by weight of active compound is mixed with the stated amounts of solvent and emulsifier, and the concentrate is diluted with emulsifier-containing water to the desired concentration. Bean plants (Phaseolus vulgaris) which are heavily infested by all stages of the greenhouse red spider mite (Tetranychus urticae) are dipped into a preparation of active compound of the desired concentration. After the desired period of time, the effect in % is determined. 100% means that all spider mites have been killed; 0% means that none of the spider mites have been killed.

Digitaria [15] = test: Pre-emergence test; details: 125 g ai/ha, after three weeks
Method: as §3

Sugar beet [16] = test: Pre-emergence test; details: 125 g ai/ha, after three weeks
Method: as §3

Veronica = test: Pre-emergence test; details: 125 g ai/ha, after three weeks
Method: as §3

Polygonum = test: Post-emergence test; details: 60 g ai/ha, after three weeks
Method: as §1

[17] = test system: peach aphids (Myzus persicae); test: Myzus test; details: active compound concentration of 1000 ppm; after 6 days; infested cabbage leaves dipped
Method: as §2, with “oleracea) which are heavily infested by the peach aphids (Myzus persicae)” for “oleracea)”, “concentration.” for “concentration and are populated with larvae of the mustard beetle (Phaedon cochleariae) while the leaves are still moist.”, “aphids” for “beetle larvae”

Cyperus = test: Pre-emergence test; details: 125 g ai/ha, after three weeks
Method: as §3

Abutilo = test: Pre-emergence test; details: 125 g ai/ha, after three weeks
Method: as §3

Bromus = test: Pre-emergence test; details: 125 g ai/ha, after three weeks
Method: as §3

[18] = test system: caterpillars of the army worm (Spodoptera frugiperda); test: Spodoptera frugiperda test; details: active compound concentration of 1000 ppm; after 7 days; cabbage leaves dipped
Method: as §2, with “caterpillars” for “larvae”, “army worm (Spodoptera frugiperda)” for “mustard beetle (Phaedon cochleariae)”, “caterpillars” for “beetle larvae”

Wheat [19] = test: Post-emergence test; details: 125 g ai/ha, after three weeks
Method: as §1

Viola = test: Post-emergence test; details: 125 g ai/ha, after three weeks
Method: as §1

Solanum = test: Post-emergence test; details: 125 g ai/ha, after three weeks
Method: as §1

Cassia = test: Post-emergence test; details: 125 g ai/ha, after three weeks
Method: as §1

white fly Bemisia tabaci = test: Bemisia test; details: active compound concentration of 1000 ppm; after 10 days; infested cotton plants dipped
Method: [table] To produce a suitable preparation of active compound, 1 part by weight of active compound is mixed with the stated amounts of solvent and emulsifier, and the concentrate is diluted with emulsifier-containing water to the desired concentrations. Cotton plants (Gossypium hirsutum) which are infested by eggs, larvae and pupae of the white fly Bemisia tabaci are dipped into a preparation of active compound of the desired concentration. After the desired period of time, the kill in % is determined. 100% means that all animals have been killed; 0% means that none of the animals have been killed.

Row | Structure (SMILES) | % damage Digitaria (Digitaria [1]; 125 g ai/ha) [%] | % damage Galium (Galium) [%] | % damage Sorghum (Sorghum) [%] | % damage Setaria (Setaria [2]; 125 g ai/ha) [%] | % damage Lolium (Lolium [3]) [%] | % damage Sugar beet (Sugar beet [4]; 125 g ai/ha) [%] | kill in % [6] [%] | kill in % [14] [%] | % damage Digitaria (Digitaria [15]) [%] | % damage Alopecurus (Alopecurus [9]; 125 g ai/ha) [%] | % damage Soya bean (Soya bean [10]; 125 g ai/ha) [%] | % damage Setaria (Setaria [11]; 125 g ai/ha) [%] | % damage Lolium (Lolium [12]; 125 g ai/ha) [%] | also measured
1 | CCc1cc(C)c(C2=C(O)C3(CCC(C)CC3)NC2=O)c(CC)c1 (centres unmarked) [Example I-1-a-2] | 80 | 80 | 80 | 95 | 70 | 0 | 100 |  |  |  |  |  |  | % damage Oilseed rape (Oilseed rape): 0%; kill in % [5]: 100%
2 | CCc1cc(CC)c(C2=C(O)C3(CCC(C)CC3)NC2=O)c(CC)c1 (centres unmarked) [Example I-1-a-5] | 90 | 80 | 95 | 100 |  |  |  |  |  |  |  |  |  | % damage Soya bean (Soya bean [7]): 10%; % damage Wheat (Wheat [8]): 0%; % damage Alopecurus (Alopecurus [9]; 60 g ai/ha): 100%; % damage Soya bean (Soya bean [10]; 60 g ai/ha): 0%; % damage Setaria (Setaria [11]; 60 g ai/ha): 100%; % damage Lolium (Lolium [12]; 60 g ai/ha): 100%; % damage Chenopodium (Chenopodium): 70%; % damage Echinochloa (Echinochloa): 100%
3 | C#Cc1cc(C)c(C2=C(O)C3(CCC(OC)CC3)NC2=O)c(C)c1 (centres unmarked) [Example I-1-a-21] | 100 |  |  | 99 | 95 | 0 | 100 | 100 | 100 | 100 | 0 | 100 | 100 | % damage Alopecurus (Alopecurus [13]; 125 g ai/ha): 100%; % damage Ipomoea (Ipomoea): 70%; % damage Avena fatua (Avena fatua; 125 g ai/ha): 90%; % damage Sugar beet (Sugar beet [16]): 0%; % damage Veronica (Veronica): 100%
4 | C#Cc1cc(C)c(C2=C(OC(=O)OCC)C3(CCC(OC)CC3)NC2=O)c(C)c1 (centres unmarked) [Example I-1-c-4] |  |  |  |  |  |  |  | 100 | 100 | 95 | 20 | 100 | 100 | % damage Digitaria (Digitaria [1]; 60 g ai/ha): 95%; % damage Alopecurus (Alopecurus [13]; 60 g ai/ha): 90%; % damage Setaria (Setaria [2]; 60 g ai/ha): 100%; % damage Polygonum (Polygonum): 70%; % damage Sugar beet (Sugar beet [4]; 60 g ai/ha): 10%; % damage Avena fatua (Avena fatua; 60 g ai/ha): 90%; kill in % [17]: 100%; % damage Cyperus (Cyperus): 100%; % damage Abutilo (Abutilo): 70%; % damage Bromus (Bromus): 100%
5 | CCc1cc(C)cc(C)c1C1=C(O)C2(CCCCC2)OC1=O [Example I-2-a-3] |  |  |  |  |  |  | 100 |  |  |  |  |  |  | kill in % [18]: 100%
6 | CCc1cc(C)cc(C)c1C1=C(OC(=O)C(C)(C)C)C2(CCC(OC)CC2)OC1=O (centres unmarked) [Example I-2-b-10] |  |  |  |  | 80 |  |  | 100 |  |  |  |  |  | % damage Wheat (Wheat [19]): 10%; % damage Viola (Viola): 90%; % damage Solanum (Solanum): 80%; % damage Cassia (Cassia): 95%; kill in % (white fly Bemisia tabaci): 100%
